Laboratory results as given in ChEMBL document CHEMBL5226323, “Targeting Nuclear Receptors in Neurodegeneration and Neuroinflammation” (J Med Chem, 2021).

Experiments:
[1] = biological target: T1, Nuclear receptor subfamily 2 group E member 1 (Homo sapiens, UniProt Q9Y466); experiment: Inverse agonist activity at TLX (unknown origin)
[2] = Antagonist activity at NFkappaB in rat RAW264.7 cells
Mus musculus = experiment: Anti-alzheimer activity against APP/PS1 mouse assessed as decrease in A-beta levels in hippocampus at 100 mg/kg, po measured after 14 days by ELISA analysis relative to control; type: functional; set-up: scale not given: the % may be the effect or the level left; conditions: time 14 day
[3] = biological target: T2, Retinoic acid receptor RXR-beta (Homo sapiens, UniProt P28702); experiment: Inhibition of RXRbeta (unknown origin)
T2 sequence (P28702 whole entry): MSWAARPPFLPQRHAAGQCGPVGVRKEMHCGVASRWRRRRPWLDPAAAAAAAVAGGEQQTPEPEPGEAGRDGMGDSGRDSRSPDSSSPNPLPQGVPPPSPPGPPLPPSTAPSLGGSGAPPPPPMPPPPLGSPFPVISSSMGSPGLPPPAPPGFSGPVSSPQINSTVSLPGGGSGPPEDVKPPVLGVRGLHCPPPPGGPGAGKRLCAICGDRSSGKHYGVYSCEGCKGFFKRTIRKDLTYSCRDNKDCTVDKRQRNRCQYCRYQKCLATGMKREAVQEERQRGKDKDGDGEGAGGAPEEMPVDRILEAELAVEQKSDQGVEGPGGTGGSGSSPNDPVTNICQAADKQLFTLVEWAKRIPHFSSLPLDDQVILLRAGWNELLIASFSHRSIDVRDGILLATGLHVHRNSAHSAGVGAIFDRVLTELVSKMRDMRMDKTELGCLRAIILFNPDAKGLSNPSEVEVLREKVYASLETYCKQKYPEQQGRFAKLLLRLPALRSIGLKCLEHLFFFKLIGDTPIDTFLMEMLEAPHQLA

[4] = biological target: T3, Retinoic acid receptor RXR-alpha (Homo sapiens, UniProt P19793); experiment: Inhibition of RXRalpha (unknown origin)
T3 sequence (P19793 whole entry): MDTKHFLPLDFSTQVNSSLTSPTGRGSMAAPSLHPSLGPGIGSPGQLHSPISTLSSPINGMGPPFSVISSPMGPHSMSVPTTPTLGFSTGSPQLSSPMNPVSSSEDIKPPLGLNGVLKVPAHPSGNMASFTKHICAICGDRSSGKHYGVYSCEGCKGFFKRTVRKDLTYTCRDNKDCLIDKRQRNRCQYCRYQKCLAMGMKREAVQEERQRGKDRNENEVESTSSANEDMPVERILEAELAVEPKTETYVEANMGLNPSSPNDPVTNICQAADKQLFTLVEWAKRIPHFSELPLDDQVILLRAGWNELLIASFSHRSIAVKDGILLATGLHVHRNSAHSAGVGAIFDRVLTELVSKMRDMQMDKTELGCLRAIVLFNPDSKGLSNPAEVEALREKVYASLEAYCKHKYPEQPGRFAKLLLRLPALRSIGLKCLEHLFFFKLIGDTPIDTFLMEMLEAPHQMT

[5] = biological target: T4, Retinoic acid receptor RXR-gamma (Homo sapiens, UniProt P48443); experiment: Inhibition of RXRgamma (unknown origin)
T4 sequence (P48443 whole entry): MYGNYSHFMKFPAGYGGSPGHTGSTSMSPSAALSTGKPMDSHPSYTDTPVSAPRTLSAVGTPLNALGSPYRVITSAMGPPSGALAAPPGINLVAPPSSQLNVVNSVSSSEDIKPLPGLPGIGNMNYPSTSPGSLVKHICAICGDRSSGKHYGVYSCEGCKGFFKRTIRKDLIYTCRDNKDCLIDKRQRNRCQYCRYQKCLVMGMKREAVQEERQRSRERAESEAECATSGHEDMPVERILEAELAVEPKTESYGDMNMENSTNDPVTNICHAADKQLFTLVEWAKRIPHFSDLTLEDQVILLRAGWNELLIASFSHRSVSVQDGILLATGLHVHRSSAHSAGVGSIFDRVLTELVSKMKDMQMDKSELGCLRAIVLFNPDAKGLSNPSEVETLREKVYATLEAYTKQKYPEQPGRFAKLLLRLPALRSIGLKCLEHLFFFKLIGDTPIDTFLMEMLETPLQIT

[6] = biological target: T1, Nuclear receptor subfamily 2 group E member 1; experiment: Inverse agonist activity at TLX (unknown origin) assessed as fold activation; conditions: filed as inverse agonist
[7] = biological target: T3, Retinoic acid receptor RXR-alpha; experiment: Antagonist activity at RXRalpha (unknown origin)
[8] = biological target: T5, Nuclear receptor subfamily 4immunitygroup A member 1 (Homo sapiens, UniProt P22736); experiment: Agonist activity at full length Nur77 in Normal human bronchial epithelial cell assessed as fold increase of receptor transactivation at 10 uM; type: cell-based; conditions: filed as agonist
T5 sequence (P22736 whole entry): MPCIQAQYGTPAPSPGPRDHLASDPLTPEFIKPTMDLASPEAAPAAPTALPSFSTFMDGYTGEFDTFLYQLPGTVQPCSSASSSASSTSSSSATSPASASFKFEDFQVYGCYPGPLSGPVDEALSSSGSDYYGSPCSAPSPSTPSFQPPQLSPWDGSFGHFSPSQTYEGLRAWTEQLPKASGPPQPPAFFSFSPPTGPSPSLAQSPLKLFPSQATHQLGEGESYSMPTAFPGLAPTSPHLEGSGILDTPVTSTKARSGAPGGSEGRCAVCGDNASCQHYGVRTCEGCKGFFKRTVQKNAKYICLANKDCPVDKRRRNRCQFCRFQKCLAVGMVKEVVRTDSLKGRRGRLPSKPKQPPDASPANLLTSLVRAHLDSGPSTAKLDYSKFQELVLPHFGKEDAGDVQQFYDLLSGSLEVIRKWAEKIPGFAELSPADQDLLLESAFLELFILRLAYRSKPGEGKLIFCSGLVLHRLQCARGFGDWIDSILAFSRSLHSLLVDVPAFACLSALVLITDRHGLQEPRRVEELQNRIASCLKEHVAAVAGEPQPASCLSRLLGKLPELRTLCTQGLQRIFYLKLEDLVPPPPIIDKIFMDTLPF

[9] = biological target: T5, Nuclear receptor subfamily 4immunitygroup A member 1; experiment: Binding affinity to Nur77 (unknown origin) by SPR assay
[10] = biological target: T5, Nuclear receptor subfamily 4immunitygroup A member 1; experiment: Inhibition of full length Nur77 in HEK293T cells at 50 uM relative to control; type: cell-based
[11] = biological target: Nuclear receptor subfamily 4 group A member 1 (Mus musculus) (UniProt P12813); experiment: Inhibition of full length Nur77 in mouse MN9D cells at 50 uM relative to control; type: cell-based
Sequence of Nuclear receptor subfamily 4 group A member 1 (Mus musculus) (P12813 whole entry): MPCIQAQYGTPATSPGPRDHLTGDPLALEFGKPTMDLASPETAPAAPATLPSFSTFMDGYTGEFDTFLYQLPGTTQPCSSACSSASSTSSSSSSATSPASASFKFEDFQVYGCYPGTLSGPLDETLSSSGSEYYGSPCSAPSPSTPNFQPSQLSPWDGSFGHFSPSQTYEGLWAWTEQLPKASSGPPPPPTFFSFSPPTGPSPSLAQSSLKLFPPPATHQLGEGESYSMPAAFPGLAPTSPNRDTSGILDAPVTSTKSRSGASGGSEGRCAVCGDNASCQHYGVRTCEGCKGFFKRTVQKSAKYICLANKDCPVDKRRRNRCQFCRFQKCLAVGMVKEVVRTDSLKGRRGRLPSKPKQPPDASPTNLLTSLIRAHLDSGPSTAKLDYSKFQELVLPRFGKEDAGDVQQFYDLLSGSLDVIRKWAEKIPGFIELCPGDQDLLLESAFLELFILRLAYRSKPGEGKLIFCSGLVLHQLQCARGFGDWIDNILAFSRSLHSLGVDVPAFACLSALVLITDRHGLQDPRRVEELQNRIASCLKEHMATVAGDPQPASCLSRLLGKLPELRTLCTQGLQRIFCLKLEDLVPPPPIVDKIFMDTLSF

[12] = biological target: T6, Nuclear receptor subfamily 4 group A member 2/Retinoic acid receptor RXR-alpha (Homo sapiens, UniProt P19793+P43354); experiment: Inhibition of Nurr1-RXRalpha (unknown origin) by BRET assay; type: protein-complex assay
T6 sequence (P43354 whole entry, one chain of several): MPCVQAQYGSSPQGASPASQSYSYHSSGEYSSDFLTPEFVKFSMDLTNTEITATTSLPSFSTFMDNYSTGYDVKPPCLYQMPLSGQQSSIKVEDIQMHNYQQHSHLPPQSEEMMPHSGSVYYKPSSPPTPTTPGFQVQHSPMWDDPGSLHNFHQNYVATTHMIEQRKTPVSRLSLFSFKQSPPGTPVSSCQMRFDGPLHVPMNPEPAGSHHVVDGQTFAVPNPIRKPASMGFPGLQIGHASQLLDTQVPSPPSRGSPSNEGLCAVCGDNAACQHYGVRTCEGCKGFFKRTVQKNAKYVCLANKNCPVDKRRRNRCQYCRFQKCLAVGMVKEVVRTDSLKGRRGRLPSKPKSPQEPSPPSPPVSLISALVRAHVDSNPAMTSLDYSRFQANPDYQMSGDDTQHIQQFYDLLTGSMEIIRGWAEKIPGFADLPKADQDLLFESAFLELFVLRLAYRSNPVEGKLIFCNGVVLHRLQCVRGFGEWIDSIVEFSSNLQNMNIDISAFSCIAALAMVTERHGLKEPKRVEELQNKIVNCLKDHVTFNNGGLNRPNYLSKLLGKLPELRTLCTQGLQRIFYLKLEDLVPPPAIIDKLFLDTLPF

[13] = biological target: T3, Retinoic acid receptor RXR-alpha; experiment: Inhibition of RXRalpha (unknown origin) by BRET assay
Homo sapiens = species: Homo sapiens; experiment: Selectivity ratio of IC50 for Nurr1-RXRalpha (unknown origin) to IC50 for RXRalpha (unknown origin) by BRET assay
[14] = Half life in ip dosed mouse brain; type: ADME, organism-based
[15] = biological target: T5, Nuclear receptor subfamily 4immunitygroup A member 1; experiment: Inhibition of Gal4-fused Nur77 in HEK293T cells; type: cell-based
[16] = biological target: T6, Nuclear receptor subfamily 4 group A member 2/Retinoic acid receptor RXR-alpha; experiment: Inhibition of full-length Nurr1-RXRalpha in human SH-SY5Y cells; type: cell-based
[17] = Half life in ip dosed mouse; type: ADME, organism-based; conditions: in vivo
[18] = biological target: T7, Retinoic acid receptor RXR-alpha (Homo sapiens) (UniProt P19793); experiment: Agonist activity at RXRalpha (unknown origin) assessed as fold activation; conditions: filed as agonist
T7 sequence (whole entry): T3 sequence (P19793 whole entry)

[19] = biological target: T8, Retinoic acid receptor RXR-beta (Homo sapiens) (UniProt P28702); experiment: Agonist activity at RXRbeta (unknown origin) assessed as fold activation; conditions: filed as agonist
T8 sequence (whole entry): T2 sequence (P28702 whole entry)

[20] = biological target: T9, Retinoic acid receptor RXR-gamma (Homo sapiens) (UniProt P48443); experiment: Agonist activity at RXRgamma (unknown origin) assessed as fold activation; conditions: filed as agonist
T9 sequence (whole entry): T4 sequence (P48443 whole entry)

[21] = Inhibition of RXR (unknown origin)

T1 sequence (Q9Y466 whole entry): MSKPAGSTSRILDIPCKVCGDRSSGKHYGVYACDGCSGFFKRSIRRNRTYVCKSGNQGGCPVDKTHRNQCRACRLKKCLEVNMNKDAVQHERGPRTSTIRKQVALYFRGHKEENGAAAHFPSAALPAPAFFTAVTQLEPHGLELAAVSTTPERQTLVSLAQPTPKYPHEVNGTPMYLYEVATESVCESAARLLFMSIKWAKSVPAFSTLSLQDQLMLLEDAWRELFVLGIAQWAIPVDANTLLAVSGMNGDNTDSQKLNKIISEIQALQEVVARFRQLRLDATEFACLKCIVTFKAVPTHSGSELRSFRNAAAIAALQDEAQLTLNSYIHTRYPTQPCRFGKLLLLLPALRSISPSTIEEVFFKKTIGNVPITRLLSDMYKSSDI

In the case of O=C(O)c1ccc(-c2ccc3cc(O)c(C45CC6CC(CC(C6)C4)C5)cc3c2)cc1, the EC50 [1] is reported as 200 nM.
CCCCCCCCC(=O)c1c(O)cc(O)cc1CC(=O)OCCCCC gave an IC50 [2] of 1600 nM.
Compound C=C(c1ccc(C(=O)O)cc1)c1cc2c(cc1C)C(C)(C)CCC2(C)C [BEXAROTENE] has an Activity (Mus musculus) of 75%.
CCN(c1ccc(C(=O)O)cc1)c1ccc(C(C)C)c(OC(C)C)c1 gave an EC50 [3] of 36 nM, an EC50 [4] of 32 nM and an EC50 [5] of 376 nM.
CC1(C)CC=C(c2ccccc2)c2cc(/C=C/c3ccc(C(=O)O)cc3)ccc21 showed an EC50 [1] of 200 nM and a fold change (FC) [6] of 5.
In the case of CCCCCOc1cc2c(cc1-c1cc(CCC(=O)O)ccc1O)C(C)(C)CCC2(C)C, the EC50 [7] is reported as 240 nM.
CC1=C(/C=C/C(C)=C/C=C/C(C)=C/C=O)C(C)(C)CCC1 [RETINAL] showed an EC50 [1] of 200 nM and a fold change (FC) [6] of 4.
Compound CCCCC[C@H](O)/C=C/[C@H]1C=CC(=O)[C@@H]1C/C=C\CCCC(=O)O [PROSTAGLANDIN A2] has a fold change (FC) [8] of 15 and a Kd [9] of 2050 nM.
CC/C=C\C/C=C\C/C=C\C/C=C\C/C=C\C/C=C\CCC(=O)O showed an inhibition [10] of 25% and an inhibition [11] of 25%.
With CC(C)c1cccc(-c2cc(/C=C/C(=O)O)ccc2O)c1 the EC50 [12] was 0.794 nM, the inhibition ([12]; concentration not given here) was 129% and the pEC50 [13] was 7.7. For the same compound, the Ratio IC50 (Homo sapiens) was 25.
CCN(c1ccc(C(=O)O)cc1)c1ccc(C(C)C)c(OCC(C)C)c1 gave an EC50 [3] of 23 nM, an EC50 [4] of 0.58 nM and an EC50 [5] of 3 nM.
Cc1ccc(Cl)c(Nc2ccccc2C(=O)O)c1Cl [MECLOFENAMIC ACID] showed a half-life [14] of 1.5 h, an EC50 [15] of 4700 nM and an EC50 [16] of 900 nM. For the same compound, the half-life [17] was 1.5 h.
In the case of CC1=C2[C@H](/C=C(\C)C(=O)O)CC[C@@H](C)[C@H]2CC1, the fold change (FC) [18] is reported as 9, the fold change (FC) [19] is reported as 69 and the fold change (FC) [20] is reported as 4.
With Cc1cc2c(cc1C1(c3ccc(C(=O)O)cn3)CC1)C(C)(C)CCC2(C)C the EC50 [21] was 3 nM.
